According to US7338778B2, “Luminescent method for determining cell oxygen consumption” (Becton, Dickinson and Company, priority 1991, dated 2008):
In brackets after ≈: the same amount, converted by molar mass.

Legend:
[1] = system: Pseudomonas aeruginosa (ATCC #10145); details: 1.5×10^8 CFU/ml, 37° C., times less than two hours
Procedure: A suspension containing about 3×10^8 CFU/ml, of Pseudomonas aeruginosa (ATCC #10145) in Broth A was prepared using an A-Just nephelometer. A total of 150 ul of the suspension was placed in each well of the indicator trays prepared as in Example 1; these suspensions were then diluted with solutions of phenol or copper sulfate (which are deleterious to microbial growth) to a final concentration of 1.5×10^8 CFU/ml. The trays were incubated at 37° C. and their fluorescence measured in a Fluoroskan II at 10 minute intervals.

HL60 cells [2] = test: Cytotoxicity assay in oxygen sensor plates; assay type: cell-based; details: Homo sapiens, read-out: IC50 O2 Sensor
Procedure: Oxygen sensor plates were prepared by the general methods described herein. Falcon 1177 polystyrene 96 well U-bottom plates (BD Labware) were used for all experiments. The fluorescent dye Ru(DPP)3Cl2 was adsorbed to silica gel by rotary evaporation of ethanolic solutions of the dye with the silica gel. The adsorbed dye-silica and a moisture-cure clear silicone were mixed manually and immediately applied to plate wells with approximately 17 uL silicone per well. These were cured for 2-3 days in a controlled humidity incubator.
All data was obtained with a BMG Polarstar fluorimeter at 37° C. using the bottom plate reading configuration. The bandpass filters were 465 nm for excitation and 590 nm for emission. For the experiments with […]®, a Cytofluor 4000 fluorometer was used with a 485 nm excitation filter and a 580 nm emission filter. Data was read at selected time intervals. Normalized fluorescence data was generally obtained by dividing well values at selected time points by the same well's initial reading with only media or buffer present prior to adding cells.
Cells used for cytotoxicity and quantitation experiments (HL60, U937; ATCC) were grown in tissue culture media recommended by the supplier (RPMI; Gibco and ATCC, respectively). The media was supplemented with either 20% fetal bovine serum (Hyclone) for the HL60 cells or 10% FBS for the U937 cells, with the addition of penicillin, streptomycin and fungizone (Gibco) to prevent microbial contamination. Cells were maintained in a tissue culture incubator (37° C., 5% CO2, 95% humidity) during all experiments between readings.
HL60 cells (human promyelocytic leukemia cell line, ATCC #45500) were grown in tissue culture media recommended by the supplier (RPMI; Gibco), supplemented with 20% fetal bovine serum, heat inactivated at 50° C. for thirty minutes with the addition of penicillin, streptomycin and fungizone (Gibco) to prevent microbial contamination. Cells were maintained in tissue culture incubator (37° C., 5% CO2, 95% humidity) during all experiments. Fluorescence of the oxygen sensor was read on a Polarstar™ fluorometer (BMG), using 465 nm excitation and 590 nm emission filters.
100 uL of tissue culture media was aliquoted into the wells of the Oxygen sensor plate and plate was allowed to equilibrate in the tissue culture incubator for 1 hour prior to taking the initial reading. This reading was used to normalize all subsequent readings to account for well to well variability. Cells were resuspended in fresh media at 960,000 cells/mi. Serial 1:2 dilution of this stock was performed and 100 uL of each dilution was alliquoted across the length of the plate in replicates of 12 (rows B-H), with final cell/well number from 1,500 to 96,000. In row A, 100 uL of tissue culture media was alliquoted into the wells in lieu of cells (no-cells control). Fluorescence measurements were taken every 24 hours over 5 days. The actual number of cells present was counted with a hemocytometer by sampling the parallel well (same seeding cell number). Mean fluorescence from 5 wells per data point (n=5) was plotted against the counted cell number (FIG. 10). Error bars are standard deviation of the mean.
The experiment was performed as described in Example 18, with the following exceptions. Serial dilutions of vinblastine were prepared at twice the final concentration (100 nM to 0.1 nM) in tissue culture media.100 uL of the drug dilution in tissue culture media was aliquoted across the width of the plate in replicates of five, reserving one column for no-drug (media only) control. After an initial reading, a constant number of cells (200,000/well) in 100 uL media were added to each well of rows A-E of the oxygen sensor plate, reserving rows F-H for no-cells control. Fluorescence was read at the indicated times. Mean fluorescence from 5 wells per data point (n=5) was plotted against vinblastine concentration (FIG. 12).

HL60 cells [3] = test: Cytotoxicity assay by MTT; assay type: cell-based; details: Homo sapiens, read-out: IC50 MTT
Procedure: In parallel with the oxygen sensor assays, MTT assays were performed using a Cell Titer Kit™ (Promega), as in Example 20, with the following exceptions. For each time point (corresponding to oxygen sensor assay time point), one flat-bottom 96 well microtiter plate (Falcon) was used. 50 uL of drug dilution in tissue culture media was used for initial reading and cells were suspended in 50 uL media, to the final volume of 100 uL. At indicated time points, 10 uL of MTT reagent was added per well for 1 hour, after which 100 uL of the stop/lysis buffer was added. Plates were sealed with Parafilm™ and cell lysis occurred overnight. Absorbance (570 nm corrected by absorbance at 750 nm) was read using a Thermomax Microplate Reader (Molecular Devices). Mean absorbance from 5 wells per data point, with standard deviation as error bars, was plotted against vinblastine concentration (FIG. 13).
These experiments was performed as described in Example 20, with the exception that appropriate dilutions of the above reagents were substituted for vinblastine: 0.01 nM to 10000 nM methotrexate, 0.00001 to 10 mM sodium azide, and 2 to 2000 uM SDS respectively.

[4] = system: Ps. aeruginosa (BDMS Culture collection #N111); test: Overnight microdilution antimicrobial susceptibility test (reference MIC); assay type: cell-based; details: Pseudomonas aeruginosa
E. coli (ATCC #25922) [5] = test: Visual reading of indicator tray fluorescence without a fluorometer (Example 13); assay type: cell-based; details: E. coli #25922, 1×10^7 CFU/ml, 4 hours at 37° C., UV transilluminator
Procedure: (§1) The trays were incubated for 4 hours at 37° C. and subsequently placed on the stage of an ultraviolet transilluminator (#TX-365A, Spectronics Corp., Westbury, N.Y.) which served as an excitation source.

[6] = system: Ps. aeruginosa (BDMS Culture collection #N111); test: as above; assay type: cell-based; details: 1×10^7 CFU/ml, 4 hours at 37° C., UV transilluminator
Procedure: as §1

E. coli (ATCC #25922) [7] = test: Effect of antibiotics on oxygen consumption of E. coli, DPA indicator tray (Example 10); assay type: cell-based; details: for susceptibility of E. coli by fluorescence counts: 4 hours; for Relative Fluorescence at 4 hrs.: 1×10^7 CFU/ml, 37° C.
E. coli (ATCC #25922) [8] = test: Effect of antibiotics on oxygen consumption of E. coli, Ru(BiPy)3Cl2 indicator tray (Example 9); assay type: cell-based; details: for susceptibility of E. coli by fluorescence counts: 4 hours; for Relative Fluorescence at 4 hrs.: 1×10^7 CFU/ml, 37° C.
Procedure: A 96 well Microtiter tray was produced essentially as in Example 1, except that tris-(2,2′ bipyridyl)-ruthenium (II) chloride hexahydrate (Aldrich Chemical Company, Milwaukee, Wis.) [Ru(BiPy)3Cl2] was substituted for Ru(DPP)3Cl2 in the silicone mixture. A second tray containing 9,10-diphenyl anthracene (DPA) was also prepared. All wells were charged with 150 ul of 1×10^7 CFU/ml E. coli (ATCC #25922) in broth. Table 3 lists the results at 0, 1, 2, 3, and 4 hours after addition of organisms.
(§2) A 0.5 McFarland suspension of E. coli (ATCC #25922) in Broth A (see Example 1) was prepared using an A-Just nephelometer. […] The trays were incubated at 37° C. for 4 hours and their fluorescence measured in a Fluoroskan II fluorometer.

E. coli (ATCC #25922) [9] = test: Overnight microdilution antimicrobial susceptibility test (reference MIC); assay type: cell-based; details: Escherichia coli, ATCC25922; E. coli #25922, overnight microdilution
E. coli (ATCC #25922) [10] = test: Effect of antibiotics on E. coli, Ru(DPP)3Cl2 indicator tray (Example 8); assay type: cell-based; details: for susceptibility of E. coli by fluorescence counts: 4 hours; for Relative Fluorescence at 4 hrs.: 1×10^7 CFU/ml, 37° C.
Procedure: as §2
The fluorescent compound tris 4,7-diphenyl-1,10-phenanthroline ruthenium (II) chloride (Ru(DPP)3Cl2) was synthesized using the procedure of Watts and Crosby (J. Am.Chem. Soc. 93, 3184(1971)). A total of 3.6 mg of the compound was dissolved in 2.0 ml dimethyl sulfoxide (D-5879, Sigma Chemical, St. Louis, Mo.) and the resultant solution was then added slowly, with stirring, to 1300 ml silicone rubber forming solution (Water Based Emulsion #3-5024, Dow Corning, Midland, Mich.). A 35 microliter aliquot of the mixture was subsequently dispensed into each well of a 96 well, flat bottom, white microtiter tray (#011-010-7901, Dynatech, Chantilly, Va.), and the system was subsequently cured overnight in a low humidity (less than 25% RH), 60° C. incubator. After curing, the trays were washed by either soaking or by filling and emptying each well several times with each of the following reagents; a) absolute ethanol, b) 0.1 M phosphate buffer pH 7.2, c) hot distilled water (about 45° C.) and d) ambient temperature distilled water.

O=S(=O)([O-])[O-].[Cu+2] [copper sulfate]
concentration at which wells had no increase in fluorescence signal (absence of actively metabolizing organisms) [1]: greater than 500 mg/liter

CN(Cc1cnc2nc(N)nc(N)c2n1)c1ccc(C(=O)N[C@@H](CCC(=O)O)C(=O)O)cc1 [Methotrexate, methotrexate]
IC50 (HL60 cells [2]; HL-60, HL60 cells, 96 hours): 0.019 µM | IC50 (HL60 cells [2]; HL-60, HL60 cells, 120 hours): 0.012 µM | IC50 (HL60 cells [3]; HL-60, HL60 cells, 120 hours): 0.014 µM

CO[C@@]1(NC(=O)Cc2cccs2)C(=O)N2C(C(=O)O)=C(COC(N)=O)CS[C@@H]21 [Cefoxitin, cefoxitin]
MIC [4]: > 64 µg/mL | MIC Visual (lowest concentration of antibiotic to significantly lower the fluorescent emissions) (E. coli (ATCC #25922) [5]): 8 µg/mL | MIC Visual (lowest concentration of antibiotic to significantly lower the fluorescent emissions) [6]: >64 µg/mL | susceptibility of E. coli by fluorescence counts (E. coli (ATCC #25922) [7]; 0.5, 1, 2 ug/ml): resistant | susceptibility of E. coli by fluorescence counts (E. coli (ATCC #25922) [7]; 4 and 8 ug/ml): sensitive | Relative Fluorescence at 4 hrs. (E. coli (ATCC #25922) [7]; antibiotic 0.5 ug/mL): 192 | Relative Fluorescence at 4 hrs. (E. coli (ATCC #25922) [7]; antibiotic 1 ug/mL): 173 | Relative Fluorescence at 4 hrs. (E. coli (ATCC #25922) [7]; antibiotic 2 ug/mL): 164 | Relative Fluorescence at 4 hrs. (E. coli (ATCC #25922) [7]; antibiotic 4 ug/mL): 101 | Relative Fluorescence at 4 hrs. (E. coli (ATCC #25922) [7]; antibiotic 8 ug/mL): 95 | susceptibility of E. coli by fluorescence counts (E. coli (ATCC #25922) [8]; 0.5, 1, and 2 ug/ml): resistant | susceptibility of E. coli by fluorescence counts (E. coli (ATCC #25922) [8]; 4 and 8 ug/ml): sensitive | Relative Fluorescence at 4 hrs. (E. coli (ATCC #25922) [8]; antibiotic 0.5 ug/mL): 1171 | Relative Fluorescence at 4 hrs. (E. coli (ATCC #25922) [8]; antibiotic 1 ug/mL): 1491 | Relative Fluorescence at 4 hrs. (E. coli (ATCC #25922) [8]; antibiotic 2 ug/mL): 1338 | Relative Fluorescence at 4 hrs. (E. coli (ATCC #25922) [8]; antibiotic 4 ug/mL): 832 | Relative Fluorescence at 4 hrs. (E. coli (ATCC #25922) [8]; antibiotic 8 ug/mL): 559 | MIC (E. coli (ATCC #25922) [9]): 4 µg/mL (≈ 9.36 µM) | susceptibility of E. coli by fluorescence counts (E. coli (ATCC #25922) [10]; 0.5, 1, and 2 ug/ml): resistant | susceptibility of E. coli by fluorescence counts (E. coli (ATCC #25922) [10]; 4 and 8 ug/ml): sensitive | Relative Fluorescence at 4 hrs. (E. coli (ATCC #25922) [10]; antibiotic 0.5 ug/mL): 8181 | Relative Fluorescence at 4 hrs. (E. coli (ATCC #25922) [10]; antibiotic 1 ug/mL): 8270 | Relative Fluorescence at 4 hrs. (E. coli (ATCC #25922) [10]; antibiotic 2 ug/mL): 7120 | Relative Fluorescence at 4 hrs. (E. coli (ATCC #25922) [10]; antibiotic 4 ug/mL): 3692 | Relative Fluorescence at 4 hrs. (E. coli (ATCC #25922) [10]; antibiotic 8 ug/mL): 2974

[N-]=[N+]=[N-] [Sodium Azide, sodium azide]
IC50 (HL60 cells [2]; HL-60, 48 h): 13 µM | IC50 (HL60 cells [2]; HL-60, 72 h): 13 µM | IC50 (HL60 cells [2]; HL-60, 96 h): 9 µM | IC50 (HL60 cells [2]; HL-60, 120 h): 5.8 µM | IC50 (HL60 cells [3]; HL-60, 48 h): 25 µM | IC50 (HL60 cells [3]; HL-60, 72 h): 25 µM | IC50 (HL60 cells [3]; HL-60, 96 h): 3 µM | IC50 (HL60 cells [3]; HL-60, 120 h): 1.6 µM
